Measurements from article PMC8764033, “Single-molecule analysis of specificity and multivalency in binding of short linear substrate motifs to the APC/C” (Nature Communications, 2022).
Where “and” joins values, the source holds several entries; their conditions need not be identical. Equal values may be shown once. Read-outs that look alike come from different tables or passages of the source. Where a SMILES comes first, the peptide text is derived from it.

What was measured:
Type in all cases: binding
[1] = biological target: T1, APC/C^Cdc20 (Saccharomyces cerevisiae, UniProt P26309+P53068); test: SMOR assay, yeast APC/C^Cdc20; settings: for mean dwell time: representative of two independent experiments, ± SE, ligand ≤1 nM, buffer C + BSA
T1 construct: APC/C was purified from yeast cells; made in house; host or cells: APC/C from S. cerevisiae W303 strain NHY13 (Cdc16-TAP, Apc1-GFP, cdh1 deleted); Cdc20 from Sf9 (baculovirus)
Protocol: (§1) Yeast strains were derivatives of W303 and are listed in Supplementary Table 2. For APC/C purification, we used a strain carrying Cdc16-TAP and lacking Cdh1 (DOM1126); in most experiments, the strain also carried Apc1-GFP (NHY13). Yeast were grown in YPD media to OD600 = 0.8, collected and flash-frozen. Cells were lysed by bead beating in lysis buffer A (50 mM HEPES pH 7.5, 150 mM KCl, 10% glycerol, 0.2% Triton X-100, 63 µM B-glycerophosphate, 48 µM sodium fluoride, 1 µg ml^−1 pepstatin A, 1 µg ml^−1 leupeptin, 1 µg ml^−1 aprotinin, 1 mM PMSF, 1 mM DTT, 0.5 mM EDTA) and APC/C was purified using magnetic IgG beads. The beads were washed using wash buffer A (20 mM HEPES pH 7.5, 150 mM KCl, 10% Glycerol, 0.05% Triton X-100). After incubation with purified Cdh1 or Cdc20, the APC/C was cleaved off the beads with TEV protease in wash buffer A with 0.05% Tween-20 (for single-molecule studies) or 0.05% Triton X-100 (for ensemble assays such as ubiquitylation) and used immediately.
(§2) For all SMOR experiments, 24 × 50 mm high precision glass coverslips (Bioscience Tools) and drilled microscope slides were passivated with a combination of PEG and PEG-biotin (coverslips) or PEG only (slides) following a previously published protocol for SiMPull[31]. Reaction chambers (~20 µl) were created using double-sided tape and epoxy. Protein was immobilized on the surface with 0.2 mg ml^−1 NeutrAvidin in buffer C (20 mM HEPES pH 7.5, 150 mM KCl, 10% glycerol, 0.05% Tween-20, 1 mM DTT). Excess NeutrAvidin was washed away and incubated with either biotin-conjugated mouse monoclonal anti-Strep-Tag II antibody (LSBio, Cat. No. LS-C203632-100) or biotin-conjugated rabbit polyclonal anti-GFP antibody (Rockland, Cat. No. 600-406-215) diluted in buffer C + BSA (0.1 mg ml^−1; Molecular Biology Grade Bovine Serum Albumin). Activator WD40 and activated APC/C (typically 50 µl containing about 65 ng APC/C, of which only a small fraction is immobilized on the glass) were immobilized using anti-Strep-Tag II, while APC/C alone was immobilized with anti-GFP. SMOR results were similar when performed in the buffer (wash buffer B) used in polarization anisotropy.
(§3) To capture dynamic protein–protein interactions, dye-labeled substrate diluted in buffer C + BSA was added to the chamber containing immobilized proteins. Interactions were imaged by TIRF microscopy as described below. For optimal signal-to-noise ratio, peptide concentration was no greater than 1 nM. Protein substrates included Hsl1 aa 667–872 and a C-terminal HaloTag followed by a TAP tag, and were produced by translation in rabbit reticulocyte lysates using TnT Quick Coupled Transcription/Translation System (Promega) (see Supplementary Table 5 for plasmids). Protein was purified with magnetic IgG beads and labeled on the bead with JF549 or JF646 dye so that unbound dye could be washed away. Purified dye-labeled protein was then cleaved from the beads using TEV protease. Before adding substrate to the reaction chamber, oxygen scavenging reagents were added (10 nM protocatechuate-3,4-dioxygenase, 2.5 mM protocatechuic acid, and 1 mM Trolox)[41]. A detailed description of the SMOR analysis pipeline is found in Supplementary Note 1.
(§4) Microscopy was performed with a Nikon Eclipse TE2000-E with Perfect Focus with a 100 × 1.49na oil, Apo TIRF DIC N2, 0.13-0.2, WD0.12 objective. Movies were recorded using the Andor iXon DU-897E-CSO. For visualizing GFP-tagged protein, a 491 nm laser was used with an ET525/50 (Chroma) filter for emission. For visualizing JF549-labeled substrate, a 561 nm laser was used with an ET595/50 (Chroma) filter for emission. For visualizing all Cy5-labeled peptides and JF646-labeled substrates, a 640 nm laser was used with an ET685/70 filter (Chroma) for emission. Initially, for each substrate tested, we acquired movies at multiple intervals to deduce the optimal interval to decrease bleaching. µManager version 2.0 was used to control the microscope and record time-lapse movies.

[2] = biological target: T2, APC/C^apo (Saccharomyces cerevisiae, UniProt P38042+P53068); test: SMOR assay, yeast APC/C^apo (no activator); settings: Supplementary Table 1, single movie
T2 construct: APC/C was purified from yeast cells; made in house; host or cells: S. cerevisiae W303 strain NHY13 (Cdc16-TAP, Apc1-GFP, cdh1 deleted)
Protocol: as §1, §2, §3, §4

[3] = biological target: T3, APC/C^Cdh1 (Saccharomyces cerevisiae, UniProt P53068+P53197); settings: for mean dwell time: representative of two independent experiments, ± SE, ligand ≤1 nM, buffer C + BSA
T3 construct: APC/C was purified from yeast cells; made in house; host or cells: APC/C from S. cerevisiae W303 strain NHY13 (Cdc16-TAP, Apc1-GFP, cdh1 deleted); Cdh1 from Sf9 (baculovirus)
Protocol: as §1, §2, §3, §4

[4] = Supplementary Table 1, replicate 1 (movie listed first)
[5] = Supplementary Table 1, replicate 2 (movie listed second)
[6] = Supplementary Table 1, replicate 1
[7] = Supplementary Table 1, replicate 2

Compound | Dwell Time [1, 4] [s] | Dwell Time [1, 5] [s] | mean dwell time [1] | Dwell Time (in words) [2] | Dwell Time [3, 4] [s] | Dwell Time [3, 5] [s] | mean dwell time [3] | binding (in words) [1] | Dwell Time (in words) [1, 6] | Dwell Time (in words) [1, 7] | binding (in words) [3] | Dwell Time (in words) [3, 6] | fold higher affinity for APC/C^Cdc20 ([1]; vs APC/C^Cdh1) [fold] | Dwell Time (in words) [3, 7]
CC(C)C[C@H](NC(=O)[C@H](C)NC(=O)[C@H](CCCNC(=N)N)NC(=O)[C@H](CCCNC(=N)N)NC(=O)[C@@H]1CCCN1C(=O)[C@H](CCCCN)NC(=O)[C@H](CO)NC(=O)[C@H](CC(=O)O)NC(=O)[C@@H](N)CCC(N)=O)C(=O)N[C@H](C(=O)N[C@@H](CC(=O)O)C(=O)N[C@H](C(=O)N1CCC[C@H]1C(=O)N[C@H](C(=O)N[C@@H](CC(N)=O)C(=O)N[C@@H](CC(N)=O)C(=O)N[C@@H](CC(N)=O)C(=O)N1CCC[C@H]1C(=O)N[C@@H](CC(C)C)C(=O)N[C@@H](CO)C(=O)N[C@@H](CCC(N)=O)C(=O)N[C@@H](CCCCN)C(=O)O)C(C)C)C(C)C)[C@@H](C)O [Clb5 D box] (H-QDSKPRRALTDVPVNNNPLSQK-OH; N-terminus and C-terminus assumed) | 0.179 ± 0.008 | 0.207 ± 0.008 | 0.207 ± 0.008 s and 0.207 s | no binding | 0.146 ± 0.007 | 0.159 ± 0.004 | 0.159 ± 0.004 s and 0.159 s |  |  |  |  |  |  | 
CC[C@H](C)[C@H](NC(=O)[C@H](CC(=O)O)NC(=O)[C@H](CO)NC(=O)[C@H](C)NC(=O)[C@H](C)NC(=O)[C@H](C)NC(=O)[C@H](C)NC(=O)[C@H](CCCCN)NC(=O)[C@@H]1CCCN1C(=O)[C@H](CCCCN)NC(=O)[C@H](CCC(N)=O)NC(=O)[C@@H](N)CCC(=O)O)C(=O)N[C@H](C(=O)N[C@@H](C)C(=O)N[C@@H](CO)C(=O)N[C@@H](Cc1ccccc1)C(=O)N[C@@H](CC(N)=O)C(=O)N[C@@H](CCCCN)C(=O)N[C@@H](CCSC)C(=O)N[C@@H](CC(N)=O)C(=O)N[C@@H](CCCCN)C(=O)O)[C@@H](C)O [Hsl1 D box mutant] (H-EQKPKAAAASDITASFNKMNK-OH; N-terminus and C-terminus assumed) |  |  |  | no binding |  |  |  | No binding | no binding | no binding | No binding | no binding |  | 
CC[C@H](C)[C@H](NC(=O)[C@H](Cc1ccccc1)NC(=O)[C@H](CO)NC(=O)[C@H](CCCCN)NC(=O)[C@H](CO)NC(=O)[C@H](CCCNC(=N)N)NC(=O)[C@H](CC(N)=O)NC(=O)[C@H](CC(N)=O)NC(=O)[C@H](CC(=O)O)NC(=O)[C@H](CCCCN)NC(=O)[C@H](C)NC(=O)[C@H](C)NC(=O)[C@H](CC(C)C)NC(=O)[C@@H]1CCCN1C(=O)[C@H](CC(C)C)NC(=O)[C@H](CCCNC(=N)N)NC(=O)CNC(=O)[C@H](CCC(N)=O)NC(=O)[C@H](CCC(N)=O)NC(=O)[C@H](CCC(N)=O)NC(=O)[C@H](C)N)C(=O)N[C@@H](CCCCN)C(=O)O [ySecurin D box] (H-AQQQGRLPLAAKDNNRSKSFIK-OH; N-terminus and C-terminus assumed) | 1.859 ± 0.041 | 1.870 ± 0.035 | 1.87 ± 0.04 s and 1.87 s | no binding | 0.132 ± 0.002 | 0.121 ± 0.006 | 0.132 ± 0.002 s and 0.132 s |  |  |  |  |  | 15 | 
LIYVDKENGEPGTR-K(Cy5) [hSecurin KEN, Cy5-labeled KEN box peptide of human securin/Pttg1] |  |  |  | no binding |  |  |  | No binding | no binding | no binding | No binding | no binding |  | no binding
LPKATRKALGTVNRATEKSVK-K(Cy5) [AurKB D box, Cy5-labeled D box peptide of Aurora B kinase] |  |  |  | no binding |  |  |  | No binding | no binding | no binding | No binding | no binding |  | no binding
SKAAQFMLYEETAEERNI-K(Cy5) [Acm1 ABBA, Cy5-labeled Cdh1-specific ABBA motif from pseudosubstrate yeast protein Acm1] |  |  |  | no binding |  |  |  | No binding | no binding | no binding | No binding | no binding |  | no binding
